Reference: publication PMC10504751, “Chalcone/1,3,4-Oxadiazole/Benzimidazole hybrids as novel anti-proliferative agents inducing apoptosis and inhibiting EGFR & BRAFV^600E” (BMC Chemistry, 2023)

Experiments:
Experiment in all cases: NCI one-dose SRB anti-proliferative screen
Type in all cases: cell-based
[1] = system: A549/ATCC; settings: Homo sapiens; A549/ATCC (Non-Small Cell Lung Cancer), NCI one dose 10 µM; read-out: Cell growth inhibition %
Procedure, shortened: (§1)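 One concentration (10 µM) was used per compound. Proliferation was assessed using the sulforhodamine B colorimetric method across sixty lines grouped into nine cancer subpanels.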

[2] = system: COLO 205; settings: Homo sapiens; COLO 205 (Colon Cancer), NCI one dose 10 µM; read-out: Cell growth inhibition %
Procedure, shortened: as §1

[3] = system: DU-145; settings: Homo sapiens; DU-145 (Prostate Cancer), NCI one dose 10 µM; read-out: Cell growth inhibition %
Procedure, shortened: as §1

[4] = system: HCC-2998; settings: Homo sapiens; HCC-2998 (Colon Cancer), NCI one dose 10 µM; read-out: Cell growth inhibition %
Procedure, shortened: as §1

[5] = system: HCT-15; settings: Homo sapiens; HCT-15 (Colon Cancer), NCI one dose 10 µM; read-out: Cell growth inhibition %
Procedure, shortened: as §1

[6] = system: HL-60(TB); settings: Homo sapiens; HL-60(TB) (Leukemia), NCI one dose 10 µM; read-out: Cell growth inhibition %
Procedure, shortened: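 Activity reflects a single-point exposure at 10 µM, with cell mass determined by a sulforhodamine B dye assay.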

[7] = system: HOP-92; settings: Homo sapiens; HOP-92 (Non-Small Cell Lung Cancer), NCI one dose 10 µM; read-out: Cell growth inhibition %
Procedure, shortened: as §1

[8] = system: HT29; settings: Homo sapiens, HT-29; HT29 (Colon Cancer), NCI one dose 10 µM; read-out: Cell growth inhibition %
Procedure, shortened: as §1

[9] = system: IGROV1; settings: Homo sapiens, IGROV-1; IGROV1 (Ovarian Cancer), NCI one dose 10 µM; read-out: Cell growth inhibition %
Procedure, shortened: as §1

[10] = system: KM12; settings: Homo sapiens; KM12 (Colon Cancer), NCI one dose 10 µM; read-out: Cell growth inhibition %
Procedure, shortened: as §1

[11] = system: LOX IMVI; settings: Homo sapiens, LOX IMIV (Melanoma), NCI one dose 10 µM, read-out: Cell growth inhibition %
Procedure, shortened: as §1

[12] = system: M14; settings: Homo sapiens; M14 (Melanoma), NCI one dose 10 µM; read-out: Cell growth inhibition %
Procedure, shortened: as §1

[13] = system: MALME-3M; settings: Homo sapiens; MALME-3M (Melanoma), NCI one dose 10 µM; read-out: Cell growth inhibition %
Procedure, shortened: as §1

[14] = system: MCF7; settings: Homo sapiens; MCF7 (Breast Cancer), NCI one dose 10 µM; read-out: Cell growth inhibition %
Procedure, shortened: as §1

[15] = system: MDA-MB-231/ATCC; settings: Homo sapiens; MDA-MB-231/ATCC (Breast Cancer), NCI one dose 10 µM; read-out: Cell growth inhibition %
Procedure, shortened: as §1

[16] = system: NCI-H23; settings: Homo sapiens; NCI-H23 (Non-Small Cell Lung Cancer), NCI one dose 10 µM; read-out: Cell growth inhibition %
Procedure, shortened: as §1

[17] = system: NCI-H322M; settings: Homo sapiens; NCI-H322M (Non-Small Cell Lung Cancer), NCI one dose 10 µM; read-out: Cell growth inhibition %
Procedure, shortened: as §1

[18] = system: NCI-H460; settings: Homo sapiens; NCI-H460 (Non-Small Cell Lung Cancer), NCI one dose 10 µM; read-out: Cell growth inhibition %
Procedure, shortened: as §1

[19] = system: OVCAR-4; settings: Homo sapiens; OVCAR-4 (Ovarian Cancer), NCI one dose 10 µM; read-out: Cell growth inhibition %
Procedure, shortened: as §1

[20] = system: OVCAR-5; settings: Homo sapiens; OVCAR-5 (Ovarian Cancer), NCI one dose 10 µM; read-out: Cell growth inhibition %
Procedure, shortened: as §1

[21] = system: OVCAR-8; settings: Homo sapiens; OVCAR-8 (Ovarian Cancer), NCI one dose 10 µM; read-out: Cell growth inhibition %
Procedure, shortened: as §1

[22] = system: PC-3; settings: Homo sapiens; PC-3 (Prostate Cancer), NCI one dose 10 µM; read-out: Cell growth inhibition %
Procedure, shortened: as §1

[23] = system: SF-295; settings: Homo sapiens; SF-295 (CNS Cancer), NCI one dose 10 µM; read-out: Cell growth inhibition %
Procedure, shortened: as §1

[24] = system: SF-539; settings: Homo sapiens; SF-539 (CNS Cancer), NCI one dose 10 µM; read-out: Cell growth inhibition %
Procedure, shortened: as §1

[25] = system: SK-MEL-28; settings: Homo sapiens; SK-MEL-28 (Melanoma), NCI one dose 10 µM; read-out: Cell growth inhibition %
Procedure, shortened: as §1

[26] = system: SK-MEL-5; settings: Homo sapiens; SK-MEL-5 (Melanoma), NCI one dose 10 µM; read-out: Cell growth inhibition %
Procedure, shortened: as §1

[27] = system: SK-OV-3; settings: Homo sapiens; SK-OV-3 (Ovarian Cancer), NCI one dose 10 µM; read-out: Cell growth inhibition %
Procedure, shortened: as §1

[28] = system: SNB-19; settings: Homo sapiens; SNB-19 (CNS Cancer), NCI one dose 10 µM; read-out: Cell growth inhibition %
Procedure, shortened: as §1

[29] = system: SW-620; settings: Homo sapiens; SW-620 (Colon Cancer), NCI one dose 10 µM; read-out: Cell growth inhibition %
Procedure, shortened: as §1

[30] = system: TK-10; settings: Homo sapiens; TK-10 (Renal Cancer), NCI one dose 10 µM; read-out: Cell growth inhibition %
Procedure, shortened: as §1

[31] = system: UACC-257; settings: Homo sapiens; UACC-257 (Melanoma), NCI one dose 10 µM; read-out: Cell growth inhibition %
Procedure, shortened: as §1

SMILES	inhibition at 10 µM [1] [%]	inhibition at 10 µM [2] [%]	inhibition at 10 µM [3] [%]	inhibition at 10 µM [4] [%]	inhibition at 10 µM [5] [%]	inhibition at 10 µM [6] [%]	inhibition at 10 µM [7] [%]	inhibition at 10 µM [8] [%]	inhibition at 10 µM [9] [%]	inhibition at 10 µM [10] [%]	inhibition at 10 µM [11] [%]	inhibition at 10 µM [12] [%]	inhibition at 10 µM [13] [%]	inhibition at 10 µM [14] [%]	inhibition at 10 µM [15] [%]	inhibition at 10 µM [16] [%]	inhibition at 10 µM [17] [%]	inhibition at 10 µM [18] [%]	inhibition at 10 µM [19] [%]	inhibition at 10 µM [20] [%]	further results
COc1ccc(/C=C/C(=O)c2ccc(NC(=O)CSc3nnc(-c4ccc5[nH]c(-c6ccc(OC)c(OC)c6)nc5c4)o3)cc2)cc1 [Compound 7r, 2-{5-[2-(3,4-Dimethoxyphenyl)-1 H-benzo[d]imidazol-5-yl]-1,3,4-oxadiazol-2-ylthio}-N-{4-[(E)-3-(4-methoxyphenyl)acryloyl]phenyl}acetamide]	0	0	0	0	2.32	20.9	5.88	0	2.07	0	20.2	0	8.71	24.7	4.13	5.15	1.05	0	0	0	inhibition at 10 µM [21]: 11.1%; inhibition at 10 µM [22]: 7.58%; inhibition at 10 µM [23]: 3.2%; inhibition at 10 µM [24]: 7.36%; inhibition at 10 µM [25]: 0%; inhibition at 10 µM [26]: 10.8%; inhibition at 10 µM [27]: 0%; inhibition at 10 µM [28]: 0%; inhibition at 10 µM [29]: 0%; inhibition at 10 µM [30]: 0%; inhibition at 10 µM [31]: 0%
COc1cc(-c2nc3cc(-c4nnc(SCC(=O)Nc5ccc(C(=O)/C=C/c6ccccc6)cc5)o4)ccc3[nH]2)cc(OC)c1OC [Compound 7u, 2-{5-[2-(3,4,5-Trimethoxyphenyl)-1 H-benzo[d]imidazol-5-yl]-1,3,4-oxadiazol-2-ylthio}-N-{4-[(E)-3-phenylacryloyl]phenyl}acetamide]	0.78	0	0	0	12.3	5.25	9.74	0	29	0.98	22	0	2.82	44.7	4.05	3.04	0	0	0	0	inhibition at 10 µM [21]: 10.6%; inhibition at 10 µM [22]: 9.18%; inhibition at 10 µM [23]: 2%; inhibition at 10 µM [24]: 13.3%; inhibition at 10 µM [25]: 0%; inhibition at 10 µM [26]: 5.99%; inhibition at 10 µM [27]: 0%; inhibition at 10 µM [28]: 0%; inhibition at 10 µM [29]: 0%; inhibition at 10 µM [30]: 0%; inhibition at 10 µM [31]: 0%
COc1cc(-c2nc3cc(-c4nnc(SCC(=O)Nc5ccc(C(=O)/C=C/c6ccc(Cl)cc6)cc5)o4)ccc3[nH]2)cc(OC)c1OC [Compound 7v, 2-{5-[2-(3,4,5-Trimethoxyphenyl)-1 H-benzo[d]imidazol-5-yl]-1,3,4-oxadiazol-2-ylthio}-N-{4-[(E)-3-(4-chlorophenyl)acryloyl]phenyl}acetamide]	0	0	0	0	13.1	7.46	17.8	0	18.4	9.06	132	0	0	40.9	8.4	0	3.77	0	0	0.76	inhibition at 10 µM [21]: 7.52%; inhibition at 10 µM [22]: 4.91%; inhibition at 10 µM [23]: 2.25%; inhibition at 10 µM [24]: 25.3%; inhibition at 10 µM [25]: 0%; inhibition at 10 µM [26]: 8.57%; inhibition at 10 µM [27]: 0%; inhibition at 10 µM [28]: 6.59%; inhibition at 10 µM [29]: 0%; inhibition at 10 µM [30]: 0%; inhibition at 10 µM [31]: 0%
